Earlier results on two compounds are cited in PMC6422283 (Future medicinal chemistry, 2015).

In this data set the test system is TRPV1. To be noted: capsaicin-induced Ca2+ flux into HEK293 cells. (A change in cytosolic calcium serves as a functional read-out for many receptors and channels.)

Structures are written as SMILES.

A word on the IC50: it is the point on the concentration scale where inhibition reaches its midpoint. Consider `Oc1cc2c(cc1O)CN(C(=S)NCCc1ccc(Cl)cc1)CCC2` [Compound 2, capsazepine], for which the IC50 was 100 nM.

As for `Cc1nc2cc(NC(=O)c3ccc(-c4ccc(F)cc4)nc3C)ccc2s1` [SB782443], the IC50 is 49 nM.
